Measurements: US12465594B2 (Brown University, priority 2018, dated 2025)

What was measured:
Alpha1D = Alpha1D (Homo sapiens, UniProt P25100); assay: PDSP binding assay; details: 10 μM, quadruplicate, cloned target
SERT = SERT (Homo sapiens, UniProt P31645); assay: PDSP binding assay; details: 10 μM, quadruplicate, cloned target
Beta2 = Beta2 (Homo sapiens, UniProt P07550); assay: PDSP binding assay; details: 10 μM, quadruplicate, cloned target
Alpha1A = Alpha1A (Homo sapiens, UniProt P35348); assay: PDSP binding assay; details: 10 μM, quadruplicate, cloned target
Chain of Alpha1A (P35348 whole entry): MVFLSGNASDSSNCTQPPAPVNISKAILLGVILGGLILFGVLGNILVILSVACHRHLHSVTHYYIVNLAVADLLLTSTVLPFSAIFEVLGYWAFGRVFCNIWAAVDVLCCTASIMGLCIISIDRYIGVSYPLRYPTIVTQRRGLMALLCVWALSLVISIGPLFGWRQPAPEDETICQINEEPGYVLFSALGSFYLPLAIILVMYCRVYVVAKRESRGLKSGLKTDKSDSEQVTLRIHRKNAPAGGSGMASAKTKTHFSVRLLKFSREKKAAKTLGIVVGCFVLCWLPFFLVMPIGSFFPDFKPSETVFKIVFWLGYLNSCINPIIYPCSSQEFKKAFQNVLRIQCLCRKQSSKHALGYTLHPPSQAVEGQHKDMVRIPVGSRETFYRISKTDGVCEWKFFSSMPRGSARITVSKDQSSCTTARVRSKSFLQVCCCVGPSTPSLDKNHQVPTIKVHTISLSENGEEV

Beta1 = Beta1 (Homo sapiens, UniProt P08588); assay: PDSP binding assay; details: 10 μM, quadruplicate, cloned target
Chain of Beta1 (P08588 whole entry): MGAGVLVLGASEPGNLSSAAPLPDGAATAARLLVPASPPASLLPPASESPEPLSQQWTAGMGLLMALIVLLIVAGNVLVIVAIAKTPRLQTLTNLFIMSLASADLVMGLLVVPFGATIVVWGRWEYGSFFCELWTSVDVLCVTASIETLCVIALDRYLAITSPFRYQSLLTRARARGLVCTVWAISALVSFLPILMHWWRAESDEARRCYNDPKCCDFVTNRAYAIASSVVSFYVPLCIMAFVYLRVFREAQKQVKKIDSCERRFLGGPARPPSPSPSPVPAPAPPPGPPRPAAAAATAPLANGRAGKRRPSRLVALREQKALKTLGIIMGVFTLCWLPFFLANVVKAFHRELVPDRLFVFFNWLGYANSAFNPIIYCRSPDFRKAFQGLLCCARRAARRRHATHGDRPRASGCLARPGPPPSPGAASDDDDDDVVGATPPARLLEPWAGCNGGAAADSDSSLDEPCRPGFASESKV

5-HT5A = molecular target: T1, 5-HT5A (Homo sapiens, UniProt P47898); assay: PDSP binding assay; details: 10 μM, quadruplicate, cloned target
T1 construct: NIMH Psychoactive Drug Screening Program (PDSP)
T1 sequence (P47898 whole entry, species assumed): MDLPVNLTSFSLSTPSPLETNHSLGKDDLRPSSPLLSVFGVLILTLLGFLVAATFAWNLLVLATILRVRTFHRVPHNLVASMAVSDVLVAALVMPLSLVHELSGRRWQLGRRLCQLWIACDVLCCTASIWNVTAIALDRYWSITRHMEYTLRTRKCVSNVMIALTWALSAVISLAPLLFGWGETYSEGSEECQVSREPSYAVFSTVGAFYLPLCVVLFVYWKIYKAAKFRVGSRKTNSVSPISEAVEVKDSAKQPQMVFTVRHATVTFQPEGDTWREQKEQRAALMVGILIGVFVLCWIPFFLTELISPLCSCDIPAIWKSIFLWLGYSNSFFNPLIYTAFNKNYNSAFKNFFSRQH

D1 = molecular target: T2, D1 (Homo sapiens, UniProt P21728); assay: PDSP binding assay; details: 10 μM, quadruplicate, cloned target
T2 construct: NIMH Psychoactive Drug Screening Program (PDSP)

H4 = H4 (Homo sapiens, UniProt Q9H3N8); assay: PDSP binding assay; details: 10 μM, quadruplicate, cloned target
5-HT7 = molecular target: T3, 5-HT7 (Homo sapiens, UniProt P34969); assay: PDSP binding assay; details: 10 μM, quadruplicate, cloned target
T3 construct: NIMH Psychoactive Drug Screening Program (PDSP)
T3 sequence (P34969 whole entry, species assumed): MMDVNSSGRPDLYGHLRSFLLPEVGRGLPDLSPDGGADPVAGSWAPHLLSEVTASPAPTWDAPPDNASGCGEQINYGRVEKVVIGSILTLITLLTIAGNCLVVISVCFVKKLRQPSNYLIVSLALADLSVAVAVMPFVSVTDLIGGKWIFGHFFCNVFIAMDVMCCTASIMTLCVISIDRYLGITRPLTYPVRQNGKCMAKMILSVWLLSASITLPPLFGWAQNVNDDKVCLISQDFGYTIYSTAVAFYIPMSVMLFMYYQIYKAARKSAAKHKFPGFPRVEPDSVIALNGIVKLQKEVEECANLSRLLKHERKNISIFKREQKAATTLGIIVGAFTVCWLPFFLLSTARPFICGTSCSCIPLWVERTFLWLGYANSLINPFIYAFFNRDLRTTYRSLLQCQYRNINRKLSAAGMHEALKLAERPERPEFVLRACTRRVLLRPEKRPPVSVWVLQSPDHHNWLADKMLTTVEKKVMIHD

D2 = molecular target: T4, D2 (Homo sapiens, UniProt P14416); assay: PDSP binding assay; details: 10 μM, quadruplicate, cloned target
T4 construct: NIMH Psychoactive Drug Screening Program (PDSP)

MOR = MOR (Homo sapiens, UniProt P35372); assay: PDSP binding assay; details: 10 μM, quadruplicate, cloned target
Chain of MOR (P35372 whole entry): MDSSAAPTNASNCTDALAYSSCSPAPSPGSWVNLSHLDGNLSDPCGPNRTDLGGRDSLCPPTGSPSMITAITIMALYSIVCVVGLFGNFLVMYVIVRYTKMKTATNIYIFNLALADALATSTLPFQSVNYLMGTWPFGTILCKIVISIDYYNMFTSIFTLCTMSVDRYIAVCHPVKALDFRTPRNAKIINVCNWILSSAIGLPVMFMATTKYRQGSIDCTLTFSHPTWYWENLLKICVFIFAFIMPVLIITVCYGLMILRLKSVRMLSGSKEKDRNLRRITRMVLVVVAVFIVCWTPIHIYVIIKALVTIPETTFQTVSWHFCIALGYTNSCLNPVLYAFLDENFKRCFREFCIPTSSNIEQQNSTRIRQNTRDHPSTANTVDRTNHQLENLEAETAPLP

Alpha2A = Alpha2A (Homo sapiens, UniProt P08913); assay: PDSP binding assay; details: 10 μM, quadruplicate, cloned target
Alpha1B = Alpha1B (Homo sapiens, UniProt P35368); assay: PDSP binding assay; details: 10 μM, quadruplicate, cloned target
NET = NET (Homo sapiens, UniProt P23975); assay: PDSP binding assay; details: 10 μM, quadruplicate, cloned target
Alpha2C = Alpha2C (Homo sapiens, UniProt P18825); assay: PDSP binding assay; details: 10 μM, quadruplicate, cloned target
Chain of Alpha2C (P18825 whole entry): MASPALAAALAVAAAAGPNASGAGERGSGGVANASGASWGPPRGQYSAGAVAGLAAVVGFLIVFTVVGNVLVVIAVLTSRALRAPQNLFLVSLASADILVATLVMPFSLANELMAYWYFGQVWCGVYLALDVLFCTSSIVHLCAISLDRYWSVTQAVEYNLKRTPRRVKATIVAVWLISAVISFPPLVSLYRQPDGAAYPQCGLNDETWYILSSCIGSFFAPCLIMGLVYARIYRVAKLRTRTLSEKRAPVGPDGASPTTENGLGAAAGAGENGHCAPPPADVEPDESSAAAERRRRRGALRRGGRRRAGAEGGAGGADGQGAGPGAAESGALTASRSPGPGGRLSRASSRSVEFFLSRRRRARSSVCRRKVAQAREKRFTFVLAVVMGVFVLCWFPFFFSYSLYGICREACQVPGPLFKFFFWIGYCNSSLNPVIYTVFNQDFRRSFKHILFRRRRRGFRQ

5-HT6 = molecular target: T5, 5-HT6 (Homo sapiens, UniProt P50406); assay: PDSP binding assay; details: 10 μM, quadruplicate, cloned target
T5 construct: NIMH Psychoactive Drug Screening Program (PDSP)

H2 = H2 (Homo sapiens, UniProt P25021); assay: PDSP binding assay; details: 10 μM, quadruplicate, cloned target
GABAA = assay: PDSP binding assay; details: 10 μM, quadruplicate, cloned target
KOR = KOR (Homo sapiens, UniProt P41145); assay: PDSP binding assay; details: 10 μM, quadruplicate, cloned target
D3 = D3 (Homo sapiens, UniProt P35462); assay: PDSP binding assay; details: 10 μM, quadruplicate, cloned target
Chain of D3 (P35462 whole entry): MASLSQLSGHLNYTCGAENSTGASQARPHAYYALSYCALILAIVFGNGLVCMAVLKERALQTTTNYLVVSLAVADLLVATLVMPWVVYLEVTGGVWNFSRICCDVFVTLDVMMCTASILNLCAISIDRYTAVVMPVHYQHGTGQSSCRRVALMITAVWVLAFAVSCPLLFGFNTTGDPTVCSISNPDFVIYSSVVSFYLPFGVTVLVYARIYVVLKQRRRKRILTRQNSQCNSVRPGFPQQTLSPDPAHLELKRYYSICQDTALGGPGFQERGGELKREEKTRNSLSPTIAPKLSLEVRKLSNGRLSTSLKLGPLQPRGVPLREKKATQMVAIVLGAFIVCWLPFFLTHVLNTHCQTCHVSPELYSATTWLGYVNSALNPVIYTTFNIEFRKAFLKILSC

5-HT1E = molecular target: T6, 5-HT1E (Homo sapiens, UniProt P28566); assay: PDSP binding assay; details: 10 μM, quadruplicate, cloned target
T6 construct: NIMH Psychoactive Drug Screening Program (PDSP)
T6 sequence (P28566 whole entry, species assumed): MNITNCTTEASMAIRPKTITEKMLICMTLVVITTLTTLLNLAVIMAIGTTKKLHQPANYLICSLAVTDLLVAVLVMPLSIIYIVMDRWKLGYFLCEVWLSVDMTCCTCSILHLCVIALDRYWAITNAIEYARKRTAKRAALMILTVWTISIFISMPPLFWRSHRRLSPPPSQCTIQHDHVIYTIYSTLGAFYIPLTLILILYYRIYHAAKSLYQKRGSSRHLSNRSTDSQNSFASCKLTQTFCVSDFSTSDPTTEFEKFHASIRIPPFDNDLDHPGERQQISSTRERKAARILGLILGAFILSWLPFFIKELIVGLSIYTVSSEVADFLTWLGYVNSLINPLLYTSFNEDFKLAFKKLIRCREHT

[1] = In vivo pharmacokinetic study, plasma and brain exposure; details: mouse, 10 mg/kg i.p.
M2 = M2 (Homo sapiens, UniProt P08172); assay: PDSP binding assay; details: 10 μM, quadruplicate, cloned target
M5 = M5 (Homo sapiens, UniProt P08912); assay: PDSP binding assay; details: 10 μM, quadruplicate, cloned target
CRF1 = CRF1 (Homo sapiens, UniProt P34998); assay: CRF1 Ca2+ assay; details: presence of EC80 CRF
5-HT2C = molecular target: T7, 5-HT2C (Homo sapiens, UniProt P28335); assay: PDSP binding assay; details: 10 μM, quadruplicate, cloned target
T7 construct: NIMH Psychoactive Drug Screening Program (PDSP)

M1 = M1 (Homo sapiens, UniProt P11229); assay: PDSP binding assay; details: 10 μM, quadruplicate, cloned target
5-HT2A = molecular target: T8, 5-HT2A (Homo sapiens, UniProt P28223); assay: PDSP binding assay; details: 10 μM, quadruplicate, cloned target
T8 construct: NIMH Psychoactive Drug Screening Program (PDSP)
T8 sequence (P28223 whole entry, species assumed): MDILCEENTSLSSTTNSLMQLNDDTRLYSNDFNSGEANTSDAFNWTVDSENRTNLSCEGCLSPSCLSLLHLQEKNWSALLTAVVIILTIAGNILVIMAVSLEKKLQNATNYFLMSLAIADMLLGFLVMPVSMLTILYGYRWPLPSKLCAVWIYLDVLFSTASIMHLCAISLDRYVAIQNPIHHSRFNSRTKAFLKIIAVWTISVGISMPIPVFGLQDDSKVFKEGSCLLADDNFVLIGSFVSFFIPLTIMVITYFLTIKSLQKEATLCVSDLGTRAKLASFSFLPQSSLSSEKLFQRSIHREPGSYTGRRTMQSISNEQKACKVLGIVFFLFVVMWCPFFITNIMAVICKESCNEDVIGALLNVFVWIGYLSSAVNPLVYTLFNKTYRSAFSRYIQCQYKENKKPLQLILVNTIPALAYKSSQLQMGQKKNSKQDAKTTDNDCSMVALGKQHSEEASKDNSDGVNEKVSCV

5-HT2B = molecular target: T9, 5-HT2B (Homo sapiens, UniProt P41595); assay: PDSP binding assay; details: 10 μM, quadruplicate, cloned target
T9 construct: NIMH Psychoactive Drug Screening Program (PDSP)
T9 sequence (P41595 whole entry, species assumed): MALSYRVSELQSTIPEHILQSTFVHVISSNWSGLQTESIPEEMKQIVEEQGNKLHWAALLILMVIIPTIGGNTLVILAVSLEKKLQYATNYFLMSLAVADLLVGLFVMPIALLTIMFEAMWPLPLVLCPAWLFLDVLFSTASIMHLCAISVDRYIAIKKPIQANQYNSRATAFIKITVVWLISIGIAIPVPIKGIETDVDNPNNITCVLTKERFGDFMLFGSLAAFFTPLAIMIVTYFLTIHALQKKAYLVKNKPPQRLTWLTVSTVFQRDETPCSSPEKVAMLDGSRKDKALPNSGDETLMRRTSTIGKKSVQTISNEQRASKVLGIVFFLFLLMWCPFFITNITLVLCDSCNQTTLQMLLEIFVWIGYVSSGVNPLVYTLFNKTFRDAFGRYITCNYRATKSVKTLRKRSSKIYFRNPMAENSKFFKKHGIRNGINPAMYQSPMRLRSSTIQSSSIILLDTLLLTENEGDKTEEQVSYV

5-HT1B = molecular target: T10, 5-HT1B (Homo sapiens, UniProt P28222); assay: PDSP binding assay; details: 10 μM, quadruplicate, cloned target
T10 construct: NIMH Psychoactive Drug Screening Program (PDSP)
T10 sequence (P28222 whole entry, species assumed): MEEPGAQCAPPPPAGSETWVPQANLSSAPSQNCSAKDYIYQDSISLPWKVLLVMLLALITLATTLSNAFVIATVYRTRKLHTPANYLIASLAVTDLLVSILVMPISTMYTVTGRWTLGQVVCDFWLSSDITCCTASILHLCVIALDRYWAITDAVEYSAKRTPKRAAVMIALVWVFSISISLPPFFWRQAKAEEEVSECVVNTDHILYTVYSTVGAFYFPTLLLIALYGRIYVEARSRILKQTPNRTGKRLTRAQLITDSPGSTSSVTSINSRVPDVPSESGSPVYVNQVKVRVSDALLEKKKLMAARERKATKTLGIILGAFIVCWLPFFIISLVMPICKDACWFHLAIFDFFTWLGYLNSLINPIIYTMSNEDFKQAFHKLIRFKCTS

Beta3 = Beta3 (Homo sapiens, UniProt P13945); assay: PDSP binding assay; details: 10 μM, quadruplicate, cloned target
5-HT1A = molecular target: T11, 5-HT1A (Homo sapiens, UniProt P08908); assay: PDSP binding assay; details: 10 μM, quadruplicate, cloned target
T11 construct: NIMH Psychoactive Drug Screening Program (PDSP)

[2] = Brain homogenate binding (equilibrium dialysis); type: in vitro ADME; details: rat brain homogenate
Text: Both compounds were then profiled for their plasma protein binding (PPB) and brain homogenate binding (BHB) to predict the unbound drug fraction in the plasma and brain respectively.

## Brc1ccccc1-c1nnc(CSc2nnnn2-c2ccccc2)o1 [MLS-0046818]
Alpha1D
  Activity at Alpha1D (binding assay): −10%
SERT
  Activity at SERT (binding assay): −14%
Beta2
  Activity at Beta2 (binding assay): 1%
Alpha1A
  Activity at Alpha1A (binding assay): 10%
Beta1
  Activity at Beta1 (binding assay): 7%
5-HT5A
  Activity at 5-HT5A (binding assay): −1%
D1
  Activity at D1 (binding assay): −1%
H4
  Activity at H4 (binding assay): 8%
5-HT7
  Activity at 5-HT7 (binding assay): −31%
D2
  Activity at D2 (binding assay): −13%
MOR
  Activity at MOR (binding assay): 12%
Alpha2A
  Activity at Alpha2A (binding assay): 4%
Alpha1B
  Activity at Alpha1B (binding assay): 19%
NET
  Activity at NET (binding assay): 8%
Alpha2C
  Activity at Alpha2C (binding assay): 8%
5-HT6
  Activity at 5-HT6 (binding assay): 35%
H2
  Activity at H2 (binding assay): 22%
GABAA
  Activity at GABAA (binding assay): 15%
KOR
  Activity at KOR (binding assay): 85%
D3
  Activity at D3 (binding assay): −11%
5-HT1E
  Activity at 5-HT1E (binding assay): 16%
[1]; 4 hour post-dose
  Brain exposure: 56 nM
  Brain exposure relative to IC50: 0.10 ×IC50
[1]; 6 hour post-dose
  Brain exposure relative to IC50: 0.14 ×IC50
[1]; 24 hour post-dose
  Brain exposure: 40 nM
  Brain exposure relative to IC50: 0.07 ×IC50
[1]
  Plasma Cmax exposure relative to in vitro IC50: 4.8 ×
M2
  Activity at M2 (binding assay): 10%
M5
  Activity at M5 (binding assay): −6%
CRF1
  CRF1 activity: inactive
5-HT2C
  Activity at 5-HT2C (binding assay): 19%
M1
  Activity at M1 (binding assay): −15%
5-HT2A
  Activity at 5-HT2A (binding assay): 5%
5-HT2B
  Activity at 5-HT2B (binding assay): 67%
5-HT1B
  Activity at 5-HT1B (binding assay): 5%
Beta3
  Activity at Beta3 (binding assay): 27%
5-HT1A
  Activity at 5-HT1A (binding assay): 26%
[2]
  Brain homogenate binding, free: 2.3 % free

## CC(C)Cn1c(SCC(=O)N2CCc3ccccc3C2)nc2cc(Cl)ccc2c1=O [MLS-0219419]
Alpha1D
  Activity at Alpha1D (binding assay): −19%
SERT
  Activity at SERT (binding assay): −14%
Beta2
  Activity at Beta2 (binding assay): −13%
Alpha1A
  Activity at Alpha1A (binding assay): −15%
Beta1
  Activity at Beta1 (binding assay): 1%
5-HT5A
  Activity at 5-HT5A (binding assay): 12%
D1
  Activity at D1 (binding assay): 1%
H4
  Activity at H4 (binding assay): −15%
5-HT7
  Activity at 5-HT7 (binding assay): 6%
D2
  Activity at D2 (binding assay): −5%
MOR
  Activity at MOR (binding assay): −4%
Alpha2A
  Activity at Alpha2A (binding assay): 8%
Alpha1B
  Activity at Alpha1B (binding assay): −1%
NET
  Activity at NET (binding assay): 12%
Alpha2C
  Activity at Alpha2C (binding assay): −5%
5-HT6
  Activity at 5-HT6 (binding assay): 2%
H2
  Activity at H2 (binding assay): 20%
GABAA
  Activity at GABAA (binding assay): 9%
KOR
  Activity at KOR (binding assay): −10%
D3
  Activity at D3 (binding assay): −6%
5-HT1E
  Activity at 5-HT1E (binding assay): 11%
[1]; 4 hour post-dose
  Brain exposure: 245 nM
  Brain exposure relative to IC50: 0.52 ×IC50
[1]; 24 hour post-dose
  Brain exposure: 78 nM
  Brain exposure relative to IC50: 0.17 ×IC50
[1]
  Plasma Cmax exposure relative to in vitro IC50: 1.7 ×
M2
  Activity at M2 (binding assay): 23%
M5
  Activity at M5 (binding assay): −2%
CRF1
  CRF1 activity: inactive
5-HT2C
  Activity at 5-HT2C (binding assay): −7%
M1
  Activity at M1 (binding assay): −15%
5-HT2A
  Activity at 5-HT2A (binding assay): −1%
5-HT2B
  Activity at 5-HT2B (binding assay): 2%
5-HT1B
  Activity at 5-HT1B (binding assay): 18%
Beta3
  Activity at Beta3 (binding assay): 29%
5-HT1A
  Activity at 5-HT1A (binding assay): −9%
[2]
  Brain homogenate binding, free: 0.0 % free
